Assay results published in patent US20230085307A1, “PYRIDAZINONE COMPOUND AND HERBICIDE” (NISSAN CHEMICAL CORPORATION, priority 2019, published 2023).

Key:
[1] = system: redroot pigweed; assay: Test Example 4: herbicidal effect by soil treatment (Table 19, symbol N); format: in vivo, redroot pigweed (Amaranthus retroflexus); details: amount of applied herbicide 320 g/ha
Method in brief: (§1)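 Seeds were sown in sterilized diluvial soil and covered with about 1.5 cm of soil. An emulsion formulation diluted with water to a predetermined herbicide amount was sprayed evenly onto the soil surface. Plants grew in a greenhouse at 25° C. to 30° C., and the effect was scored three weeks after application using criteria from an earlier test.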

[2] = system: Italian ryegrass; assay: Test Example 5: herbicidal effect by foliage application, plastic box (Table 20, symbol K); format: in vivo, Italian ryegrass (Lolium multiflorum); details: amount of applied herbicide 320 g/ha; foliage application after 14-day growth; evaluated three weeks after application
Method in brief: (§2)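 Plants sown in sterilized diluvial soil and grown 14 days in a greenhouse at 25° C to 30° C, then sprayed on the foliage with the compound's emulsion diluted in water to a predetermined herbicide amount. Injury to weeds and crops scored three weeks after application on a visual rating scale.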

[3] = system: redroot pigweed; assay: Test Example 5: herbicidal effect by foliage application, plastic box (Table 20, symbol N); format: in vivo, redroot pigweed (Amaranthus retroflexus); details: amount of applied herbicide 320 g/ha; foliage application after 14-day growth; evaluated three weeks after application
Method in brief: as §2

[4] = system: wild oat; assay: Test Example 4: herbicidal effect by soil treatment (Table 19, symbol I); format: in vivo, wild oat (Avena fatua); details: amount of applied herbicide 320 g/ha
Method in brief: as §1

[5] = system: velvetleaf; assay: Test Example 4: herbicidal effect by soil treatment (Table 19, symbol M); format: in vivo, velvetleaf (Abutilon theophrasti); details: amount of applied herbicide 320 g/ha
Method in brief: as §1

[6] = system: blackgrass; assay: Test Example 5: herbicidal effect by foliage application, plastic box (Table 20, symbol J); format: in vivo, blackgrass (Alopecurus myosuroides); details: amount of applied herbicide 320 g/ha; foliage application after 14-day growth; evaluated three weeks after application
Method in brief: as §2

[7] = system: blackgrass; assay: Test Example 4: herbicidal effect by soil treatment (Table 19, symbol J); format: in vivo, blackgrass (Alopecurus myosuroides); details: amount of applied herbicide 320 g/ha
Method in brief: as §1

[8] = system: wild oat; assay: Test Example 5: herbicidal effect by foliage application, plastic box (Table 20, symbol I); format: in vivo, wild oat (Avena fatua); details: amount of applied herbicide 320 g/ha; foliage application after 14-day growth; evaluated three weeks after application
Method in brief: as §2

[9] = system: velvetleaf; assay: Test Example 5: herbicidal effect by foliage application, plastic box (Table 20, symbol M); format: in vivo, velvetleaf (Abutilon theophrasti); details: amount of applied herbicide 320 g/ha; foliage application after 14-day growth; evaluated three weeks after application
Method in brief: as §2

[10] = system: lambsquarters; assay: Test Example 4: herbicidal effect by soil treatment (Table 19, symbol O); format: in vivo, lambsquarters (Chenopodium album); details: amount of applied herbicide 320 g/ha
Method in brief: as §1

[11] = system: Italian ryegrass; assay: Test Example 4: herbicidal effect by soil treatment (Table 19, symbol K); format: in vivo, Italian ryegrass (Lolium multiflorum); details: amount of applied herbicide 320 g/ha
Method in brief: as §1

[12] = system: barnyard grass; assay: Test Example 4: herbicidal effect by soil treatment (Table 19, symbol H); format: in vivo, barnyard grass (Echinochloa crus-galli); details: amount of applied herbicide 320 g/ha
Method in brief: as §1

[13] = system: lambsquarters; assay: Test Example 5: herbicidal effect by foliage application, plastic box (Table 20, symbol O); format: in vivo, lambsquarters (Chenopodium album); details: amount of applied herbicide 320 g/ha; foliage application after 14-day growth; evaluated three weeks after application
Method in brief: as §2

[14] = system: windgrass; assay: Test Example 4: herbicidal effect by soil treatment (Table 19, symbol L); format: in vivo, windgrass (Apera spica-venti); details: amount of applied herbicide 320 g/ha
Method in brief: as §1

[15] = system: rice flat sedge; assay: Test Example 3: herbicidal effect by foliage application, Wagner pot (Table 18, symbol E); format: in vivo, rice flat sedge (Cyperus iria); details: 320 g/ha
Method in brief: (§3)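 Plants were sown in alluvial soil held under 0.1–0.5 cm standing water and grown 14 days in a greenhouse at 25–30 °C. An emulsifiable formulation, water-diluted to the set dose, was then sprayed onto the foliage, and effects were scored three weeks later using previously defined criteria.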

[16] = system: southern crabgrass; assay: Test Example 5: herbicidal effect by foliage application, plastic box (Table 20, symbol F); format: in vivo, southern crabgrass (Digitaria ciliaris); details: amount of applied herbicide 320 g/ha; foliage application after 14-day growth; evaluated three weeks after application
Method in brief: as §2

[17] = system: southern crabgrass; assay: Test Example 4: herbicidal effect by soil treatment (Table 19, symbol F); format: in vivo, southern crabgrass (Digitaria ciliaris); details: amount of applied herbicide 320 g/ha
Method in brief: as §1

[18] = system: chickweed; assay: Test Example 4: herbicidal effect by soil treatment (Table 19, symbol P); format: in vivo, common chickweed (Stellaria media); details: amount of applied herbicide 320 g/ha
Method in brief: as §1

[19] = system: green foxtail; assay: Test Example 4: herbicidal effect by soil treatment (Table 19, symbol G); format: in vivo, green foxtail (Setaria viridis); details: amount of applied herbicide 320 g/ha
Method in brief: as §1

[20] = system: Chinese sprangletop; assay: Test Example 3: herbicidal effect by foliage application, Wagner pot (Table 18, symbol D); format: in vivo, chinese sprangletop (Leptochloa chinensis); details: 320 g/ha
Method in brief: as §3

[21] = system: green foxtail; assay: Test Example 5: herbicidal effect by foliage application, plastic box (Table 20, symbol G); format: in vivo, green foxtail (Setaria viridis); details: amount of applied herbicide 320 g/ha; foliage application after 14-day growth; evaluated three weeks after application
Method in brief: as §2

[22] = system: persian speedwell; assay: Test Example 5: herbicidal effect by foliage application, plastic box (Table 20, symbol R); format: in vivo, Persian speedwell (Veronica persica); details: amount of applied herbicide 320 g/ha; foliage application after 14-day growth; evaluated three weeks after application
Method in brief: as §2

[23] = system: barnyard grass; assay: Test Example 3: herbicidal effect by foliage application, Wagner pot (Table 18, symbol H); format: in vivo, barnyard grass (Echinochloa crus-galli); details: 320 g/ha
Method in brief: as §3

[24] = system: persian speedwell; assay: Test Example 4: herbicidal effect by soil treatment (Table 19, symbol R); format: in vivo, Persian speedwell (Veronica persica); details: amount of applied herbicide 320 g/ha
Method in brief: as §1

[25] = system: barnyard grass; assay: Test Example 5: herbicidal effect by foliage application, plastic box (Table 20, symbol H); format: in vivo, barnyard grass (Echinochloa crus-galli); details: amount of applied herbicide 320 g/ha; foliage application after 14-day growth; evaluated three weeks after application
Method in brief: as §2

[26] = system: chickweed; assay: Test Example 5: herbicidal effect by foliage application, plastic box (Table 20, symbol P); format: in vivo, common chickweed (Stellaria media); details: amount of applied herbicide 320 g/ha; foliage application after 14-day growth; evaluated three weeks after application
Method in brief: as §2

[27] = system: windgrass; assay: Test Example 5: herbicidal effect by foliage application, plastic box (Table 20, symbol L); format: in vivo, windgrass (Apera spica-venti); details: amount of applied herbicide 320 g/ha; foliage application after 14-day growth; evaluated three weeks after application
Method in brief: as §2

CSc1ccc(-c2sc3c(Cl)cccc3c2-c2c(O)c(C)nn(C)c2=O)cc1 [4-088]
Herbicidal effect by soil treatment, N: redroot pigweed [1]: 5 (Herbicidal rate of 90% or more (almost completely withered)) | Herbicidal effect by foliage application, K: Italian ryegrass [2]: 4 (Herbicidal rate of 70% or more and less than 90%) | Herbicidal effect by foliage application, N: redroot pigweed [3]: 5 (Herbicidal rate of 90% or more (almost completely withered)) | Herbicidal effect by soil treatment, I: wild oat [4]: 0 (Herbicidal rate of 5% or less (almost no effect)) | Herbicidal effect by soil treatment, M: velvetleaf [5]: 0 (Herbicidal rate of 5% or less (almost no effect)) | Herbicidal effect by foliage application, J: blackgrass [6]: 2 (Herbicidal rate of 20% or more and less than 40%) | Herbicidal effect by soil treatment, J: blackgrass [7]: 0 (Herbicidal rate of 5% or less (almost no effect)) | Herbicidal effect by foliage application, I: wild oat [8]: 4 (Herbicidal rate of 70% or more and less than 90%) | Herbicidal effect by foliage application, M: velvetleaf [9]: 5 (Herbicidal rate of 90% or more (almost completely withered)) | Herbicidal effect by soil treatment, O: lambsquarters [10]: 4 (Herbicidal rate of 70% or more and less than 90%) | Herbicidal effect by soil treatment, K: Italian ryegrass [11]: 3 (Herbicidal rate of 40% or more and less than 70%) | Herbicidal effect by soil treatment, H: barnyard grass [12]: 0 (Herbicidal rate of 5% or less (almost no effect)) | Herbicidal effect by foliage application, O: lambsquarters [13]: 5 (Herbicidal rate of 90% or more (almost completely withered)) | Herbicidal effect by soil treatment, L: windgrass [14]: 0 (Herbicidal rate of 5% or less (almost no effect)) | herbicidal effect on rice flat sedge (E) [15]: 5 (Herbicidal rate of 90% or more (almost completely withered)) | Herbicidal effect by foliage application, F: southern crabgrass [16]: 0 (Herbicidal rate of 5% or less (almost no effect)) | Herbicidal effect by soil treatment, F: southern crabgrass [17]: 0 (Herbicidal rate of 5% or less (almost no effect)) | Herbicidal effect by soil treatment, P: chickweed [18]: 0 (Herbicidal rate of 5% or less (almost no effect)) | Herbicidal effect by soil treatment, G: green foxtail [19]: 0 (Herbicidal rate of 5% or less (almost no effect)) | herbicidal effect on Chinese sprangletop (D) [20]: 3 (Herbicidal rate of 40% or more and less than 70%) | Herbicidal effect by foliage application, G: green foxtail [21]: 2 (Herbicidal rate of 20% or more and less than 40%) | Herbicidal effect by foliage application, R: persian speedwell [22]: 5 (Herbicidal rate of 90% or more (almost completely withered)) | herbicidal effect on barnyard grass (H) [23]: 5 (Herbicidal rate of 90% or more (almost completely withered)) | Herbicidal effect by soil treatment, R: persian speedwell [24]: 3 (Herbicidal rate of 40% or more and less than 70%) | Herbicidal effect by foliage application, H: barnyard grass [25]: 3 (Herbicidal rate of 40% or more and less than 70%) | Herbicidal effect by foliage application, P: chickweed [26]: 5 (Herbicidal rate of 90% or more (almost completely withered)) | Herbicidal effect by foliage application, L: windgrass [27]: 5 (Herbicidal rate of 90% or more (almost completely withered))
